This note sets out measurements from the kinase profiling compilation of Christmann-Franck et al. (2016).

Structures are written as SMILES.

For one assay, the target named is DYRK1A (human) (UniProt Q13627). Kind of assay: SelectScreen, TR FRET. A general note: TR-FRET usually uses a lanthanide donor and a delayed reading to cut background.
Assay [1] concerns the target DYRK1B (human) (UniProt Q9Y463). Kind of assay: SelectScreen, TR FRET.
In assay [2] the target is HIPK1 (human) (UniProt Q86Z02). The assay is described as follows: SelectScreen, TR FRET.
Sequence of HIPK1 (human) (Q86Z02 whole entry, looked up): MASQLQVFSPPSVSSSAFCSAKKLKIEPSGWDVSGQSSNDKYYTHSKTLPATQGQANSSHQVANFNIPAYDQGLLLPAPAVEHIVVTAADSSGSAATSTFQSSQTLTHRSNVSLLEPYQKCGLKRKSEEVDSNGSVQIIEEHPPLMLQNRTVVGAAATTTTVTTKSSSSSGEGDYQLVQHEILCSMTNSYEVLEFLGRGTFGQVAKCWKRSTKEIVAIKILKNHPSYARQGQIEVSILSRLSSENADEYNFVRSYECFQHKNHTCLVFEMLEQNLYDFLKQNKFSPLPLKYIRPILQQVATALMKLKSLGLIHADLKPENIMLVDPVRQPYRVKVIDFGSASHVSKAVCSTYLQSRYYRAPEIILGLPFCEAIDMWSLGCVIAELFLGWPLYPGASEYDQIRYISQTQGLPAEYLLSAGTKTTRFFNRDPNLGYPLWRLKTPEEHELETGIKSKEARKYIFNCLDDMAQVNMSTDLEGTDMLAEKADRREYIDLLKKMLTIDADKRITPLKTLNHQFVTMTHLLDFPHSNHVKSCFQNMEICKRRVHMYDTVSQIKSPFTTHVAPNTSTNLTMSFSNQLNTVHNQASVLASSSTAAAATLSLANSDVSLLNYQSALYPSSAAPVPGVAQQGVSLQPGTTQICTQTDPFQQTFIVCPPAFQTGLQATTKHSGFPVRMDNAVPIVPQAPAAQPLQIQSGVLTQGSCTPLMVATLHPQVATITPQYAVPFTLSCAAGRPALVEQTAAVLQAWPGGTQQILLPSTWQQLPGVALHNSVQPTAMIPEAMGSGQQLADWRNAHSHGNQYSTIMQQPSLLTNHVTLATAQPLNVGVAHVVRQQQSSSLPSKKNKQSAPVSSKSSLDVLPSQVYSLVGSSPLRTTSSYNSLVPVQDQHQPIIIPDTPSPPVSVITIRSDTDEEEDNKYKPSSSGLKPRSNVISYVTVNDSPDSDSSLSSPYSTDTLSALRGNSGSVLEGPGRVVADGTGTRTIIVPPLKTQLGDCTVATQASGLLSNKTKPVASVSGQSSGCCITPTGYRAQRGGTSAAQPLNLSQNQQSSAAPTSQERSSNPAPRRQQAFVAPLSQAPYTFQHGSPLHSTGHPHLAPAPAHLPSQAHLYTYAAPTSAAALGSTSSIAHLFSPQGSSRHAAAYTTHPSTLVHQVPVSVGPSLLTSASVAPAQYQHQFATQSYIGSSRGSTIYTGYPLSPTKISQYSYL
Another assay concerns the target HIPK2 (human) (UniProt Q9H2X6). Kind of assay: SelectScreen, TR FRET.
A further assay deals with MAP4K2 (human) (UniProt Q12851). Kind of assay: KINOMEscan competition binding. The conditions noted are these: compound 10.0 µM.
The next assay addresses MAPK10 (human) (UniProt P53779). Kind of assay: KINOMEscan competition binding. The conditions noted are these: compound 10.0 µM.
For a further assay, the target named is MAPK8 (human) (UniProt P45983). The assay is described as follows: KINOMEscan competition binding. The conditions noted are these: compound 10.0 µM.
Another assay concerns the target AAK1 (human) (UniProt Q2M2I8). The assay is described as follows: KINOMEscan competition binding. Conditions: compound 10.0 µM.
A further assay addresses DAPK1 (human) (UniProt P53355). The assay is described as follows: KINOMEscan competition binding. The conditions noted are these: compound 10.0 µM.
The target in a further assay is DAPK2 (human) (UniProt Q9UIK4). Kind of assay: KINOMEscan competition binding. Conditions: compound 10.0 µM.
For a further assay, the target named is PAK2 (human) (UniProt Q13177). Kind of assay: KINOMEscan competition binding. The conditions noted are these: compound 10.0 µM.
The next assay deals with CLK4 (human) (UniProt Q9HAZ1). Kind of assay: KINOMEscan competition binding. The conditions noted are these: compound 10.0 µM.
Assay [3] concerns the target PIM2 (human) (UniProt Q9P1W9). The assay is described as follows: KINOMEscan competition binding. Conditions: compound 10.0 µM.
For another assay, the target named is STK17B (human) (UniProt O94768). The assay is described as follows: KINOMEscan competition binding. The conditions noted are these: compound 10.0 µM.
Sequence of STK17B (human) (O94768 whole entry, looked up): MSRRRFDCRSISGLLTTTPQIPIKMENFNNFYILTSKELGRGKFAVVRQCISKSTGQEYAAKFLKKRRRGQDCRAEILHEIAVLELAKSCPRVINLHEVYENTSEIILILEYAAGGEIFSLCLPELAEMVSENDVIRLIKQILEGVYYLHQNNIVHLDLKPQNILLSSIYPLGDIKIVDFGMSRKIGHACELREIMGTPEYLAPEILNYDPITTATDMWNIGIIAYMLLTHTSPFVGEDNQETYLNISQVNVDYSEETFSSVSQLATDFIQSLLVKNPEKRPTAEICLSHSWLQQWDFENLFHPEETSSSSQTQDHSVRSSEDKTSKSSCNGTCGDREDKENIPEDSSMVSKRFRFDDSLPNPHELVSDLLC
The target of the next assay is RPS6KA5 KD2 (human) (UniProt O75582). Kind of assay: KINOMEscan competition binding. Conditions: compound 10.0 µM.
A further assay has as its target DAPK3 (human) (UniProt O43293). The assay is described as follows: KINOMEscan competition binding. The conditions noted are these: compound 10.0 µM.
Assay [4] has as its target PIM1 (human) (UniProt P11309). The assay is described as follows: KINOMEscan competition binding. The conditions noted are these: compound 10.0 µM.
Assay [5] deals with EIF2AK4 KD2 (human), Q9P2K8 [S808G]. Kind of assay: KINOMEscan competition binding. The conditions noted are these: compound 10.0 µM.
The target in another assay is BMPR1B (human) (UniProt O00238). Kind of assay: KINOMEscan competition binding. The conditions noted are these: compound 10.0 µM.
The target of assay [6] is DYRK1B (human) (UniProt Q9Y463). The assay is described as follows: KINOMEscan competition binding. Conditions: compound 10.0 µM.
Another assay deals with STK17A (human) (UniProt Q9UEE5). Kind of assay: KINOMEscan competition binding. The conditions noted are these: compound 10.0 µM.
The target of the next assay is CSNK1G1 (human) (UniProt Q9HCP0). Kind of assay: KINOMEscan competition binding. Conditions: compound 10.0 µM.
The next assay has as its target RPS6KA4 KD2 (human) (UniProt O75676). The assay is described as follows: KINOMEscan competition binding. The conditions noted are these: compound 10.0 µM.
For the next assay, the target named is PIM3 (human) (UniProt Q86V86). The assay is described as follows: KINOMEscan competition binding. The conditions noted are these: compound 10.0 µM.
The target of the next assay is CAMKK2 (human) (UniProt Q96RR4). The assay is described as follows: KINOMEscan competition binding. Conditions: compound 10.0 µM.
For assay [7], the target named is HIPK1 (human) (UniProt Q86Z02). The assay is described as follows: KINOMEscan competition binding. The conditions noted are these: compound 10.0 µM.
The target in a further assay is CLK1 (human) (UniProt P49759). The assay is described as follows: KINOMEscan competition binding. The conditions noted are these: compound 10.0 µM.
The target of another assay is CLK2 (human) (UniProt P49760). Kind of assay: KINOMEscan competition binding. Conditions: compound 10.0 µM.
Assay [8] has as its target TTK (human) (UniProt P33981). Kind of assay: SelectScreen, TR FRET.
The next assay concerns the target DCLK2 (human) (UniProt Q8N568). The assay is described as follows: SelectScreen, TR FRET.
The target of assay [9] is TTK (human) (UniProt P33981). Kind of assay: KINOMEscan competition binding. Conditions: for kinase still bound, per cent of control: compound 10.0 µM.
Sequence of TTK (human) (P33981 whole entry, looked up): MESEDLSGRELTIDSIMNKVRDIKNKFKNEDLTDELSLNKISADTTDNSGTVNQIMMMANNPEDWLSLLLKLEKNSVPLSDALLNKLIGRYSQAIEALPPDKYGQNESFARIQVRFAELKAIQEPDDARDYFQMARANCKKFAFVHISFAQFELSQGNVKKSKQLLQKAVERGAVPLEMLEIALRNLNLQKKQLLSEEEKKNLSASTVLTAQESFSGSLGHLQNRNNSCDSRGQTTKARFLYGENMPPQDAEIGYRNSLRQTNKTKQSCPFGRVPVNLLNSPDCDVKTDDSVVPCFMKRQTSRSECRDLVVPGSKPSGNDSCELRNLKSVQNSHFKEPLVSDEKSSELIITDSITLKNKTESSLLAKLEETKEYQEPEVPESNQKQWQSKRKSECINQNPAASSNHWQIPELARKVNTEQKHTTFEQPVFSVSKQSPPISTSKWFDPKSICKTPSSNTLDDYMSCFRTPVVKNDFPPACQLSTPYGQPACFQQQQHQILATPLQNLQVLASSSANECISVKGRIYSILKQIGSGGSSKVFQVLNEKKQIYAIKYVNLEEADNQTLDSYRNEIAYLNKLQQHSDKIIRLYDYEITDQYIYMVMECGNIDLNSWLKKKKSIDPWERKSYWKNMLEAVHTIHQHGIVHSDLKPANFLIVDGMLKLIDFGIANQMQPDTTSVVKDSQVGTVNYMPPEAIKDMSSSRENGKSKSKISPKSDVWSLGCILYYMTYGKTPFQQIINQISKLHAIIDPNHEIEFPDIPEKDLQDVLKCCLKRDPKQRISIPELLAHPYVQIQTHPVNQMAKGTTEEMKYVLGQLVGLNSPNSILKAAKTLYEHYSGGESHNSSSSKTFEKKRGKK
A further assay deals with RPS6KA2 KD2 (human) (UniProt Q15349). Kind of assay: KINOMEscan competition binding. Conditions: compound 10.0 µM.
A further assay addresses STK33 (human) (UniProt Q9BYT3). The assay is described as follows: KINOMEscan competition binding. Conditions: compound 10.0 µM.
For another assay, the target named is CAMK2D (human) (UniProt Q13557). The assay is described as follows: KINOMEscan competition binding. The conditions noted are these: compound 10.0 µM.
The target of another assay is GAK (human) (UniProt O14976). Kind of assay: KINOMEscan competition binding. Conditions: compound 10.0 µM.
Sequence of GAK (human) (O14976 whole entry, looked up): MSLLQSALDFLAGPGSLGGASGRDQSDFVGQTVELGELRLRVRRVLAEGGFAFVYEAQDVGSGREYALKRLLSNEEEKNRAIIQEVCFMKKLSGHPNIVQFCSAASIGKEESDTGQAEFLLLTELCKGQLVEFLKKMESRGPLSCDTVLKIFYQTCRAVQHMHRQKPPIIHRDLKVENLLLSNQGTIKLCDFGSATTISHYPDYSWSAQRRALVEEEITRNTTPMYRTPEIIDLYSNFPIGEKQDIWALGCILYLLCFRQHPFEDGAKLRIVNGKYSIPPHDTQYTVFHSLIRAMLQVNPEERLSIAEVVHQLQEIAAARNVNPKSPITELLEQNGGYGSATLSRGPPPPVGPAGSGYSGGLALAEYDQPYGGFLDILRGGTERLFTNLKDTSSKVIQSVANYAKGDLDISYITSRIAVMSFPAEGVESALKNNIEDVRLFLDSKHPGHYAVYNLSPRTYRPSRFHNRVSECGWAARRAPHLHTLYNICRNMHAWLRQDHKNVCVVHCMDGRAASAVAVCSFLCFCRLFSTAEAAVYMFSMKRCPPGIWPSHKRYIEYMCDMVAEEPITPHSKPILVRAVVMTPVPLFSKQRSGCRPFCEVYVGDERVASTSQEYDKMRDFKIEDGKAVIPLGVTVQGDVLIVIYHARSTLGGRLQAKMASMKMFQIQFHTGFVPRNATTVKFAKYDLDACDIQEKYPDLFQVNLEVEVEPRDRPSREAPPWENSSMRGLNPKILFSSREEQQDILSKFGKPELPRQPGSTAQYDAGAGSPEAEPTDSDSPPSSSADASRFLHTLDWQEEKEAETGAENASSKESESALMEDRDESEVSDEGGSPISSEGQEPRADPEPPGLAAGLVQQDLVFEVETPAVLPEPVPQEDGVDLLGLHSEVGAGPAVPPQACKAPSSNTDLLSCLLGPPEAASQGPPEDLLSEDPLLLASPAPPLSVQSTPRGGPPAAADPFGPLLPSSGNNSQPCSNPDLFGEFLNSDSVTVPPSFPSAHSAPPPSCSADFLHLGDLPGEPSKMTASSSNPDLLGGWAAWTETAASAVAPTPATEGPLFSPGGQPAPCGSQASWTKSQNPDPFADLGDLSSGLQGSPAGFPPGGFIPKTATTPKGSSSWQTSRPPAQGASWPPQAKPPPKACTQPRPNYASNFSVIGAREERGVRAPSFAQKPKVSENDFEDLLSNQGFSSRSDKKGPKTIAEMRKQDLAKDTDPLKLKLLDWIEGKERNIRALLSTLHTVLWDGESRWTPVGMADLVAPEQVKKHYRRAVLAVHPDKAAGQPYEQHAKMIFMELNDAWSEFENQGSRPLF
In another assay the target is TNK1 (human) (UniProt Q13470). Kind of assay: KINOMEscan competition binding. The conditions noted are these: compound 10.0 µM.
The target of a further assay is DCLK1 (human) (UniProt O15075). The assay is described as follows: KINOMEscan competition binding. Conditions: compound 10.0 µM.
Another assay concerns the target PLK1 (human) (UniProt P53350). The assay is described as follows: KINOMEscan competition binding. The conditions noted are these: compound 10.0 µM.
Another assay has as its target FRK (human) (UniProt P42685). The assay is described as follows: SelectScreen, TR FRET.
Another assay has as its target CSF1R (human) (UniProt P07333). The assay is described as follows: SelectScreen, TR FRET.
The next assay addresses PTK6 (human) (UniProt Q13882). The assay is described as follows: SelectScreen, TR FRET.
The target of another assay is PLK4 (human) (UniProt O00444). The assay is described as follows: KINOMEscan competition binding. Conditions: compound 10.0 µM.
Assay [10] deals with JAK2 JH1 catalytic (human) (UniProt O60674). The assay is described as follows: KINOMEscan competition binding. Conditions: compound 10.0 µM.
For assay [11], the target named is PIM2 (human) (UniProt Q9P1W9). The assay is described as follows: SelectScreen, TR FRET.
Sequence of PIM2 (human) (Q9P1W9 whole entry, looked up): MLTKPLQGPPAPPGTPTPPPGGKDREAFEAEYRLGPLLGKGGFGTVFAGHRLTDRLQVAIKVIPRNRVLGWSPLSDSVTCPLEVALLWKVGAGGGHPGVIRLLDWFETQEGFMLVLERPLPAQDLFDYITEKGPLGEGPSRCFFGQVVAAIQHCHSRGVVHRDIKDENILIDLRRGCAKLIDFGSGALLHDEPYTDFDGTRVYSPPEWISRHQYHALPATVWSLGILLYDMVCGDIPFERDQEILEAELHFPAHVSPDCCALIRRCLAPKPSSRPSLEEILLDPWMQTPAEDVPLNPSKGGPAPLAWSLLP
The target in assay [12] is PIM1 (human) (UniProt P11309). The assay is described as follows: SelectScreen, TR FRET.
Sequence of PIM1 (human) (P11309 whole entry, looked up): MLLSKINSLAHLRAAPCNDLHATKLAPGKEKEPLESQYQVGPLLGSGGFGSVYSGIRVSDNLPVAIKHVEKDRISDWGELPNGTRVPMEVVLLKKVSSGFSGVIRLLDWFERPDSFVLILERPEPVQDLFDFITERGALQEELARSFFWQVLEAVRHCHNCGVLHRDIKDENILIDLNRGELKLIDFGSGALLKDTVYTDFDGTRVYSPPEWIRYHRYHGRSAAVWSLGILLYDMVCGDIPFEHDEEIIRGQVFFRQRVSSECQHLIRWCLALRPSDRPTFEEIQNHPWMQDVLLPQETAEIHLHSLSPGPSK
The target of the next assay is BRAF (human) (UniProt P15056). Kind of assay: KINOMEscan competition binding. The conditions noted are these: compound 10.0 µM.
Another assay concerns the target GSK3A (human) (UniProt P49840). The assay is described as follows: KINOMEscan competition binding. The conditions noted are these: compound 10.0 µM.
The target of a further assay is CDK5 (human) (UniProt Q00535). Kind of assay: KINOMEscan competition binding. The conditions noted are these: compound 10.0 µM.
A further assay deals with CDK16 (human) (UniProt Q00536). Kind of assay: KINOMEscan competition binding. The conditions noted are these: compound 10.0 µM.
The target of another assay is MAPK15 (human) (UniProt Q8TD08). The assay is described as follows: KINOMEscan competition binding. The conditions noted are these: compound 10.0 µM.
The next assay deals with MAPK12 (human) (UniProt P53778). Kind of assay: KINOMEscan competition binding. The conditions noted are these: compound 10.0 µM.
The next assay has as its target ACVR2B (human) (UniProt Q13705). Kind of assay: KINOMEscan competition binding. The conditions noted are these: compound 10.0 µM.
A further assay has as its target NLK (human) (UniProt Q9UBE8). Kind of assay: KINOMEscan competition binding. Conditions: compound 10.0 µM.
In another assay the target is TAOK3 (human) (UniProt Q9H2K8). The assay is described as follows: KINOMEscan competition binding. The conditions noted are these: compound 10.0 µM.
The next assay addresses CDK3 (human) (UniProt Q00526). Kind of assay: KINOMEscan competition binding. The conditions noted are these: compound 10.0 µM.
The target in the next assay is CDK7 (human) (UniProt P50613). Kind of assay: KINOMEscan competition binding. The conditions noted are these: compound 10.0 µM.
For another assay, the target named is MYLK4 (human) (UniProt Q86YV6). The assay is described as follows: KINOMEscan competition binding. Conditions: compound 10.0 µM.
The next assay deals with TAOK1 (human) (UniProt Q7L7X3). The assay is described as follows: KINOMEscan competition binding. The conditions noted are these: compound 10.0 µM.
A further assay has as its target TGFBR2 (human) (UniProt P37173). Kind of assay: KINOMEscan competition binding. Conditions: compound 10.0 µM.

Sequence of DAPK3 (human) (O43293 whole entry, looked up): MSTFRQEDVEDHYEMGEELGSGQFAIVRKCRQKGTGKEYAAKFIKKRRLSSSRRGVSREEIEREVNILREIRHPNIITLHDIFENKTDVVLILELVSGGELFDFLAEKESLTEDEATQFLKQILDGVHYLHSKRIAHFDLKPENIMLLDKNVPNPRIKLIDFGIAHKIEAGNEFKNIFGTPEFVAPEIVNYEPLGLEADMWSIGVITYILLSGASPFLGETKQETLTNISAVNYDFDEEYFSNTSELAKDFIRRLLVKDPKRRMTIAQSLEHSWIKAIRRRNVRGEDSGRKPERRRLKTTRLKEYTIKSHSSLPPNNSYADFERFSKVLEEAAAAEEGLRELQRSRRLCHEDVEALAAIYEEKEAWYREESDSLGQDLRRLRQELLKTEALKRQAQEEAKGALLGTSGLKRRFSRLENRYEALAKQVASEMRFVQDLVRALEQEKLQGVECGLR

In general, IC50 refers to the concentration that gives 50% inhibition. A higher IC50 goes with weaker potency. In the case of `N=C1NC(=O)/C(=C/c2c[nH]c(=O)c(-c3ccc4cc[nH]c4c3)c2)S1`, the half-maximal inhibitory concentration (IC50) against DYRK1A (human) turned out to be 0.019 µM; against DYRK1B (human) [1] it was 0.062 µM; against HIPK1 (human) [2], 3.81 µM; at HIPK2 (human) it was 3.89 µM. The kinase still bound, per cent of control turned out to be 15% at MAP4K2 (human); 29% on MAPK10 (human); 28% at MAPK8 (human); 20% at AAK1 (human); 9.7% at DAPK1 (human); 4% at DAPK2 (human). In addition, the kinase still bound, per cent of control at PAK2 (human) worked out at 34%; on CLK4 (human), 30%; on PIM2 (human) [3] it was 15%; at STK17B (human), 13%; at RPS6KA5 KD2 (human), 23%; on DAPK3 (human), 8.6%. For the same compound, the kinase still bound, per cent of control is 16% at PIM1 (human) [4]; 21% in assay [5]; 6.2% on BMPR1B (human); 8.6% at DYRK1B (human) [6]; 5% at STK17A (human); 24% on CSNK1G1 (human). Moreover, the kinase still bound, per cent of control on RPS6KA4 KD2 (human) is 8.8%; on PIM3 (human), 12%; on CAMKK2 (human), 29%; on HIPK1 (human) [7], 4.2%; on CLK1 (human) it was 24%; at CLK2 (human), 4.8%.
As a reminder, the Kd is the concentration at which binding is half-saturated. Low readings indicate a tighter complex, high ones a looser complex. As to `CCOc1cc(N2CCC(O)CC2)ccc1Nc1ncc2c(n1)N(C1CCCC1)CCC(=O)N2CC`, the IC50 against TTK (human) [8] came out at 1.01 µM; at DCLK2 (human), 0.556 µM. At TTK (human) [9], this compound yielded a Kd of 0.106 µM. Besides, the kinase still bound, per cent of control at TTK (human) [9] came out at 3.9%; at RPS6KA2 KD2 (human), 13%; at STK33 (human), 22%; on CAMK2D (human), 27%; at GAK (human), 8.2%; at TNK1 (human), 33%. Further, the kinase still bound, per cent of control at DCLK1 (human) was 27%; at PLK1 (human) it was 1.2%.
For the compound `CN1C(=O)CCN(C2CCCC2)c2nc(Nc3ccc(N4CCC(O)CC4)cn3)ncc21`, the IC50 at TTK (human) [8] was found to be 0.891 µM; on FRK (human), 0.264 µM; against DCLK2 (human), 3.2 µM; against CSF1R (human), 0.428 µM; on PTK6 (human) it was 0.047 µM. In addition, the Kd at TTK (human) [9] stood at 0.13 µM. Further, the kinase still bound, per cent of control worked out at 2.2% on TTK (human) [9]; 16% on PLK4 (human); 6.4% in assay [10]; 23% at GAK (human); 24% on PLK1 (human).
As to `N=C1NC(=O)/C(=C/c2ccc(-c3ccc(S(N)(=O)=O)cc3)o2)S1`, the half-inhibitory concentration (IC50) is 0.501 µM on PIM2 (human) [11] and 0.573 µM against PIM1 (human) [12]. The kinase still bound, per cent of control was 24% at TTK (human) [9]; 24% at BRAF (human); 9.9% on GSK3A (human); 9.6% at CDK5 (human); 3.5% on DAPK1 (human); 1.2% on CDK16 (human). Further, the kinase still bound, per cent of control worked out at 16% at DAPK2 (human); 5.4% on MAPK15 (human); 12% on MAPK12 (human); 30% on ACVR2B (human); 15% on PLK4 (human); 18% on NLK (human). The kinase still bound, per cent of control on TAOK3 (human) worked out at 29%; at CDK3 (human), 17%; on CDK7 (human), 23%; at PIM2 (human) [3], 1.8%; at MYLK4 (human), 6.7%; on STK17B (human), 6%. For the same compound, the kinase still bound, per cent of control on DAPK3 (human) stood at 24%; at PIM1 (human) [4] it was 3%; at TAOK1 (human) it was 2.4%; on STK17A (human), 1.1%; at PIM3 (human), 4.8%; on HIPK1 (human) [7], 0.65%. Moreover, at TGFBR2 (human), the kinase still bound, per cent of control was found to be 22%.
